Measurements published in patent US10894784B2, “Heteroarylbenzimidazole compounds” (BAYER PHARMA AKTIENGESELLSCHAFT, priority 2015, dated 2021).

biological target: TBK1 (Homo sapiens (Human), UniProt Q9UHD2); assay: TBK1 low ATP kinase assay (in vitro assay 1); assay type: biochemical; conditions: TBK1 low ATP kinase assay IC50, in vitro assay 1
Sequence (Q9UHD2 whole entry): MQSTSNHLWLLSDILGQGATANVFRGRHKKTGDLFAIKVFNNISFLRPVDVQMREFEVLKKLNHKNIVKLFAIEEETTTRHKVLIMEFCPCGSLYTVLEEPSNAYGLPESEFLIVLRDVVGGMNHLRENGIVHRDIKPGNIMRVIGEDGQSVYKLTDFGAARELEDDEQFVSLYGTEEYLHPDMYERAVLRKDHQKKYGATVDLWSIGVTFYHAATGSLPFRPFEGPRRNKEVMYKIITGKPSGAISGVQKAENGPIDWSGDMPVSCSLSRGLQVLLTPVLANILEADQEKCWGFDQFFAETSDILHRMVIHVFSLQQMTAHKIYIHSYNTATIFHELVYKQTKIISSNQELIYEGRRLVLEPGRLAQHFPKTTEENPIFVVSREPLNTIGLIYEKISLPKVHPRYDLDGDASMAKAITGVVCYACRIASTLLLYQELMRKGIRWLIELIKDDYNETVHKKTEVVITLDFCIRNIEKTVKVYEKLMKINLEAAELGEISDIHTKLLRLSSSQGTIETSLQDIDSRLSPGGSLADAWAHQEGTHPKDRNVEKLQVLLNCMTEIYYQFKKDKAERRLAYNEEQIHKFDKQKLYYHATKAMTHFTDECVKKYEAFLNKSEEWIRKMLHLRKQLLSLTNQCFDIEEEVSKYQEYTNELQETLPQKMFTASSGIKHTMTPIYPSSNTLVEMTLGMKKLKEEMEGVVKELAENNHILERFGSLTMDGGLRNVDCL

Row | IC50 [nM] | SMILES
1 | 2.15 | Cc1cc(-c2ccc3nc(Nc4cc(C(C)N5CCN(C(=O)CC(F)(F)F)CC5)ccn4)[nH]c3c2)ncn1 (single isomer, unassigned) [Example 30.03.01.B, 3,3,3-trifluoro-1-{4-[(1S or 1R)-1-(2-{[6-(6-methylpyrimidin-4-yl)-1H-benzimidazol-2-yl]amino}pyridin-4-yl)ethyl]piperazin-1-yl}propan-1-one]

same assay, conditions: in vitro assay 1, read-out: TBK1 low ATP kinase assay IC50

Row | IC50 [nM] | SMILES
2 | 13.6 | Cc1cc(CN2CCN(C(=O)C3CC3)CC2)cc(Nc2nc3ccc(-c4ccncn4)cc3[nH]2)n1 [Example 23.02.02, cyclopropyl{4-[(2-methyl-6-{[6-(pyrimidin-4-yl)-1H-benzimidazol-2-yl]amino}pyridin-4-yl)methyl]piperazin-1-yl}methanone]
3 | 0.72 | CC(c1ccnc(Nc2nc3ccc(-c4cnn(CC5CC5(F)F)c4)cc3[nH]2)c1)N1CCN(C(=O)CC(F)(F)F)CC1 (single isomer, unassigned) [Example 55.02.01, 1-{4-[(1R or 1S)-1-(2-{[6-(1-{[(1R or IS)-2,2-difluorocyclopropyl]methyl}-1H-pyrazol-4-yl)-1H-benzimidazol-2-yl]amino}pyridin-4-yl)ethyl]piperazin-1-yl}-3,3,3-trifluoropropan-1-one]
4 | 478 | Cc1nccc(-c2ccc3nc(Nc4cc(CN5CCN(C(=O)C6CC6)CC5)cc(C(F)(F)F)n4)[nH]c3c2)n1 [Example 24.03.01, cyclopropyl(4-{[2-{[6-(2-methylpyrimidin-4-yl)-1H-benzimidazol-2-yl]amino}-6-(trifluoromethyl)pyridin-4-yl]methyl}piperazin-1-yl)methanone]
5 | 77.3 | COc1cncnc1-c1ccc2nc(Nc3cc(CN4CCN(C(=O)N5CCOCC5)CC4)ccn3)[nH]c2c1 [Example 35.01.07, {4-[(2-{[6-(5-methoxypyrimidin-4-yl)-1H-benzimidazol-2-yl]amino}pyridin-4-yl)methyl]piperazin-1-yl}(morpholin-4-yl)methanone]
6 | 92.3 | CC(c1ccnc(Nc2nc3ccc(-c4cc(C(F)(F)F)ncn4)cc3[nH]2)c1)N1CCN(C(=O)CC(F)(F)F)CC1 (single isomer, unassigned) [Example 29.02.01.A, 3,3,3-trifluoro-1-(4-{(1R or 1S)-1-[2-({6-[6-(trifluoromethyl)pyrimidin-4-yl]-1H-benzimidazol-2-yl}amino)pyridin-4-yl]ethyl}piperazin-1-yl)propan-1-one]
7 | 2.9 | O=C(C1CC1)N1CCN(Cc2ccnc(Nc3nc4ccc(-c5cc(OCC6CC6)ncn5)cc4[nH]3)c2)CC1 [Example 80.03, cyclopropyl(4-{[2-({6-[6-(cyclopropylmethoxy)pyrimidin-4-yl]-1H-benzimidazol-2-yl}amino)pyridin-4-yl]methyl}piperazin-1-yl)methanone]
8 | 2.3 | CCNc1cc(-c2ccc3nc(Nc4cc(CN5CCN(C(=O)C6CC6)CC5)ccn4)[nH]c3c2)ncn1 [Example 149.03, cyclopropyl(4-{[2-({6-[6-(ethylamino)pyrimidin-4-yl]-1H-benzimidazol-2-yl}amino)pyridin-4-yl]methyl}piperazin-1-yl)methanone]
9 | 396 | CC(c1ccnc(Nc2nc3ccc(-c4cc(C(F)(F)F)ncn4)c(F)c3[nH]2)c1)N1CCN(C(=O)OC(C)(C)C)CC1 (single isomer, unassigned) [Example 173.01, tert-butyl 4-{(1R or 1S)-1-[2-({7-fluoro-6-[6-(trifluoromethyl)pyrimidin-4-yl]-1H-benzimidazol-2-yl}amino)pyridin-4-yl]ethyl}piperazine-1-carboxylate]
10 | 1.1 | CC(c1ccnc(Nc2nc3ccc(-c4cnn(CC5CC5)c4)c(Cl)c3[nH]2)c1)N1CCN(C(=O)C2CC2)CC1 (single isomer, unassigned) [Example 122.03, (4-{(1R or 1S)-1-[2-({7-chloro-6-[1-(cyclopropylmethyl)-1H-pyrazol-4-yl]-1H-benzimidazol-2-yl}amino)pyridin-4-yl]ethyl}piperazin-1-yl)(cyclopropyl)methanone]
11 | 1170 | Cc1ncnc(-c2ccc3nc(Nc4cc(CN5CCN(C(=O)CC(F)(F)F)CC5)ccn4)[nH]c3c2)c1C [Example 32.02, 1-{4-[(2-{[6-(5,6-dimethylpyrimidin-4-yl)-1H-benzimidazol-2-yl]amino}pyridin-4-yl)methyl]piperazin-1-yl}-3,3,3-trifluoropropan-1-one]
12 | 397 | CC(C)Cc1nc(-c2ccc3nc(Nc4cc(CN5CCN(C(=O)CC(F)(F)F)CC5)ccn4)[nH]c3c2)n(C)n1 [Example 42.02, 3,3,3-trifluoro-1-(4-{[2-({6-[1-methyl-3-(2-methylpropyl)-1H-1,2,4-triazol-5-yl]-1H-benzimidazol-2-yl}amino)pyridin-4-yl]methyl}piperazin-1-yl)propan-1-one]
13 | 52.2 | O=C(CC(F)(F)F)N1CCN(Cc2ccnc(Nc3nc4ccc(-c5ccncc5OCC(F)(F)F)cc4[nH]3)c2)CC1 [Example 05.01, 3,3,3-trifluoro-1-(4-{[2-({6-[3-(2,2,2-trifluoroethoxy)pyridin-4-yl]-1H-benzimidazol-2-yl}amino)pyridin-4-yl]methyl}piperazin-1-yl)propan-1-one]
14 | 5 | CC(C)N(C)c1cc(-c2ccc3nc(Nc4cc(CN5CCN(C(=O)C6CC6)CC5)ccn4)[nH]c3c2)ncn1 [Example 153.03, cyclopropyl[4-({2-[(6-{6-[methyl(propan-2-yl)amino]pyrimidin-4-yl}-1H-benzimidazol-2-yl)amino]pyridin-4-yl}methyl)piperazin-1-yl]methanone]
15 | 450 | Cc1noc(C)c1-c1cc(-c2ccc3nc(Nc4cc(CN5CCN(C(=O)CC(F)(F)F)CC5)ccn4)[nH]c3c2)ncn1 [Example 92.02, 1-(4-{[2-({6-[6-(3,5-dimethyl-1,2-oxazol-4-yl)pyrimidin-4-yl]-1H-benzimidazol-2-yl}amino)pyridin-4-yl]methyl}piperazin-1-yl)-3,3,3-trifluoropropan-1-one]
16 | 164 | O=C(C1CC1)N1CCN(Cc2ccnc(Nc3nc4ccc(-c5ccnc(C(F)(F)F)n5)cc4[nH]3)c2)CC1 [Example 27.01, cyclopropyl(4-{[2-({6-[2-(trifluoromethyl)pyrimidin-4-yl]-1H-benzimidazol-2-yl}amino)pyridin-4-yl]methyl}piperazin-1-yl)methanone]
17 | 650 | Cc1noc(-c2ccc3nc(Nc4cc(CN5CCN(C(=O)CC(F)(F)F)CC5)c(Br)cn4)[nH]c3c2)n1 [Example 125.02, 1-{4-[(5-bromo-2-{[6-(3-methyl-1,2,4-oxadiazol-5-yl)-1H-benzimidazol-2-yl]amino}pyridin-4-yl)methyl]piperazin-1-yl}-3,3,3-trifluoropropan-1-one]
18 | 61.3 | O=C(C1CCC1)N1CCN(Cc2ccnc(Nc3nc4ccc(-c5nc(C6CC6)no5)cc4[nH]3)c2)CC1 [Example 17.06, cyclobutyl{4-[(2-{[6-(3-cyclopropyl-1,2,4-oxadiazol-5-yl)-1H-benzimidazol-2-yl]amino}pyridin-4-yl)methyl]piperazin-1-yl}methanone]
19 | 64.5 | COc1nccc(-c2ccc3nc(Nc4cc(CN5CCN(C(=O)C6CC6)CC5)ccn4)[nH]c3c2)n1 [Example 25.01.05, cyclopropyl{4-[(2-{[6-(2-methoxypyrimidin-4-yl)-1H-benzimidazol-2-yl]amino}pyridin-4-yl)methyl]piperazin-1-yl}methanone]
